Measurements taken from patent US20240279302A1, “OLFACTORY RECEPTOR EXPRESSING METHOD AND RESPONSE MEASUREMENT METHOD” (Kao Corporation, priority 2021, published 2024).
Read-outs that look alike come from different tables or passages of the source.

What was measured:
consensus OR2T11 = biological target: T1, consensus OR2T11 (Homo sapiens, UniProt Q8NH01); assay: Luciferase assay, sulfur compounds; type: cell-based
T1 construct: fused on or other part: N-terminal Flag-Rho tag from the pME18S vector

consensus OR2T27 = biological target: T2, consensus OR2T27 (Homo sapiens, UniProt Q8NH04, A21T/G216A/G235R/H131R/I13V/I140V/K45M/L36V/R69M/S88G/T37I/V304A/V305L/V43T/V8M/W142L); assay: Luciferase assay, sulfur compounds; type: cell-based; settings: in the presence of a copper ion
T2 construct: expressed in transfected cells; host or cells: HEK293
T2 sequence (Q8NH04 with tags, fused parts or gaps with the stated changes): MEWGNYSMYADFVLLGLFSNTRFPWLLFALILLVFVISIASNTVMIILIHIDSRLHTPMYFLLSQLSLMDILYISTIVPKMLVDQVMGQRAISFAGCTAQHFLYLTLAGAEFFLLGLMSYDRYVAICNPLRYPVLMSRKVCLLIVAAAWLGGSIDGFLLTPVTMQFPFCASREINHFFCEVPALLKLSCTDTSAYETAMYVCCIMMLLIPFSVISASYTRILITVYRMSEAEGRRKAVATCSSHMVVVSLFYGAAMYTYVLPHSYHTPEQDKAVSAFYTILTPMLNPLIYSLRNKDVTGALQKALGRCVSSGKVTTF

consensus OR2T4 = biological target: T3, consensus OR2T4 (Homo sapiens, UniProt Q8NH00, A104M/A342V/C83S/E340G/F135L/G202R/G259R/I245V/L252F/L277M/L47V/N218K/R201C/S177A/T338N/V244T/V317L); assay: Luciferase assay, sulfur compounds; type: cell-based
T3 construct: expressed in transfected cells; host or cells: HEK293
T3 sequence (Q8NH00 with tags, fused parts or gaps L47V/C83S/A104M/F135L/S177A/R201C/G202R/N218K/V244T/I245V/L252F/G259R/L277M/V317L/T338N/E340G/A342V): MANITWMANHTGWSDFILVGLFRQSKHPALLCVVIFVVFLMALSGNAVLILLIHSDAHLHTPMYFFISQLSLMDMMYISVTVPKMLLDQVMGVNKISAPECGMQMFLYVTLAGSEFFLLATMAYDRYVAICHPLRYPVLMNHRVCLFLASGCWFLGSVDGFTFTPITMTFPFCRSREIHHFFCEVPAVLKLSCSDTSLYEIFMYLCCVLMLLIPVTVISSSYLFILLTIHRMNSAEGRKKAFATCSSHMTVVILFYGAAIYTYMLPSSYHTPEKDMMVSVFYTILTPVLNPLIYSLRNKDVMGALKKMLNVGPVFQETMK

consensus OR2T5 = biological target: T4, consensus OR2T5 (Homo sapiens, UniProt Q6IEZ7, A76M/C55S/F147L/I190K/I217V/K41M/L14S/L223S/L224F/L249M/L87M/M19V/M302T/M75V/R23S/R24Q/R6W/S169T/S32C/S61T/T121A/T189M/V229I/V48I/V96I/W176R); assay: Luciferase assay, sulfur compounds; type: cell-based
T4 construct: expressed in transfected cells; host or cells: HEK293
T4 sequence (Q6IEZ7 with tags, fused parts or gaps R6W/L14S/M19V/R23S/R24Q/S32C/K41M/V48I/C55S/S61T/M75V/A76M/L87M/V96I/T121A/F147L/S169T/W176R/T189M/I190K/I217V/L223S/L224F/V229I/L249M/M302T): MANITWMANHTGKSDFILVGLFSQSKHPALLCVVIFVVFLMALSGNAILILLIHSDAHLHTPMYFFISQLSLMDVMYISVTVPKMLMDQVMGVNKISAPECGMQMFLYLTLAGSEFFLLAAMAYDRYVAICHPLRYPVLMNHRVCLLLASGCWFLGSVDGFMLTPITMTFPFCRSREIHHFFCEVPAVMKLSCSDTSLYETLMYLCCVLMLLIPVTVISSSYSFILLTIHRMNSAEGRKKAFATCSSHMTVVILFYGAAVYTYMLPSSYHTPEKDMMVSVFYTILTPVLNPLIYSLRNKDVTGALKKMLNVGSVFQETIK

OR2T11 = biological target: T5, OR2T11 (Homo sapiens, UniProt Q8NH01); settings: cited from earlier work
T5 sequence (Q8NH01 1-316): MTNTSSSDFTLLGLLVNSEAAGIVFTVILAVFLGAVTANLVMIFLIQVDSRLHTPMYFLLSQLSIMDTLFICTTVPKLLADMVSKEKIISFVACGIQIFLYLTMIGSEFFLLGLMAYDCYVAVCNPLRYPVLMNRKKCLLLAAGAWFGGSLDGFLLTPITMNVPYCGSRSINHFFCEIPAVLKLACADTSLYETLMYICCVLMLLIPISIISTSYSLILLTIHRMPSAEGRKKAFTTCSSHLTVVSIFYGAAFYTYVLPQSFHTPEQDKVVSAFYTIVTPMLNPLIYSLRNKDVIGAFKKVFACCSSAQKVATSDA

[1] = in the presence of a copper ion
[2] = read-out: EC50(μM) with 30 μM CuCl2; consensus OR2T11; 30 μM CuCl2
[3] = Block E et al., Nat. Prod. Rep. 2017

Row | EC50 (consensus OR2T11; consensus OR2T11; 30 μM CuCl2; read-out: EC50(μM) with 30 μM CuCl2) | SMILES | dose dependence of the response of consensus OR2T11 (consensus OR2T11; [1]) | response of consensus OR2T11 (consensus OR2T11; [1]) | EC50 (consensus OR2T11; [2]) | response of consensus OR2T27 (consensus OR2T27) | EC50 (consensus OR2T4) | dose dependence of the response of consensus OR2T4 (consensus OR2T4; [1]) | response of consensus OR2T4 (consensus OR2T4; [1]) | EC50 (consensus OR2T5; consensus OR2T5, 30 μM CuCl2) | dose dependence of the response of consensus OR2T5 (consensus OR2T5; [1]) | response of consensus OR2T5 (consensus OR2T5; [1]) | response of OR2T11 (OR2T11; [3]) | response of OR2T11 (OR2T11; in the presence of a metal ion (JP-B-6122181))
1 |  | CS [methyl mercaptan] | dose-dependent response | responded | 5 µM | responded | 340 µM | dose-dependent response | responded | 217 µM | dose-dependent response | responded | responds | respond
2 | 26 µM | CSSSC [dimethyl trisulfide] | dose-dependent response | responded |  |  |  |  | responded |  |  |  |  | 
3 |  | CSSC [dimethyl disulfide] | dose-dependent response | responded | 246 µM | responded |  |  | responded |  |  | responded | responds | 
